Laboratory results as given in PMC5218480 (PLoS ONE, 2017).

System: MV-4-11 cells
Assay: Gene expression microarray analysis (Affymetrix PrimeView) and GSEA
Format: cell-based, human
Parameters: RFU PODN (11730768_x_at) / Fold change /veh PODN (11730768_x_at) / RFU LINC00158 (11744669_a_at) / Fold change /veh LINC00158 (11744669_a_at) / RFU DUSP10 (11751237_a_at) / Fold change /veh DUSP10 (11751237_a_at) / RFU ID3 (11757404_x_at) / Fold change /veh ID3 (11757404_x_at) / RFU PLEKHG5 (11737974_s_at) / Fold change /veh PLEKHG5 (11737974_s_at) / RFU LRRC4B (11730491_at) / Fold change /veh LRRC4B (11730491_at) / RFU GIMAP4 (11747438_a_at) / Fold change /veh GIMAP4 (11747438_a_at) / RFU KRT8 (11758183_x_at) / Fold change /veh KRT8 (11758183_x_at) / RFU CNN1 (11734310_a_at) / Fold change /veh CNN1 (11734310_a_at) / RFU VPS37D (11726825_at) / Fold change /veh VPS37D (11726825_at) / RFU C10orf10 (11716522_x_at) / Fold change /veh C10orf10 (11716522_x_at) / RFU KIR2DL2 /// KIR2DL4 /// KIR2DL5A /// KIR2DL5B /// KIR2DS1 /// KIR2DS2 /// KIR2DS3 /// KIR2DS4 /// KIR3DL3 /// KIR3DL3 /// KIR3DS1 (11738374_at) / Fold change /veh KIR2DL2 /// KIR2DL4 /// KIR2DL5A /// KIR2DL5B /// KIR2DS1 /// KIR2DS2 /// KIR2DS3 /// KIR2DS4 /// KIR3DL3 /// KIR3DL3 /// KIR3DS1 (11738374_at) / RFU C1QL1 (11718748_at) / Fold change /veh C1QL1 (11718748_at) / RFU TMPRSS4 (11747572_a_at) / Fold change /veh TMPRSS4 (11747572_a_at) / RFU HAMP (11756126_x_at) / Fold change /veh HAMP (11756126_x_at) / RFU RNFT2 (11725882_a_at) / Fold change /veh RNFT2 (11725882_a_at) / RFU NR4A2 (11747474_a_at) / Fold change /veh NR4A2 (11747474_a_at) / RFU ABCC12 (11746883_a_at) / Fold change /veh ABCC12 (11746883_a_at) / RFU TMEM136 (11760407_x_at) / Fold change /veh TMEM136 (11760407_x_at) / RFU CLDN22 /// WWC2 (11732394_at) / Fold change /veh CLDN22 /// WWC2 (11732394_at) / RFU HLA-DPB1 (11760878_x_at) / Fold change /veh HLA-DPB1 (11760878_x_at) / RFU SPINT1 (11716480_a_at) / Fold change /veh SPINT1 (11716480_a_at) / RFU GAP43 (11754022_s_at) / Fold change /veh GAP43 (11754022_s_at) / RFU A4GNT (11735810_at) / Fold change /veh A4GNT (11735810_at) / RFU PRB3 (11715151_x_at) / Fold change /veh PRB3 (11715151_x_at) / RFU TUBB4B (11761932_at) / Fold change /veh TUBB4B (11761932_at) / RFU CAPN14 (11732068_a_at) / Fold change /veh CAPN14 (11732068_a_at) / RFU TMCC2 (11721928_a_at) / Fold change /veh TMCC2 (11721928_a_at) / RFU IRGQ (11745062_a_at) / Fold change /veh IRGQ (11745062_a_at) / RFU FAM174B (11720279_a_at) / Fold change /veh FAM174B (11720279_a_at) / RFU TMPRSS4 (11748680_a_at) / Fold change /veh TMPRSS4 (11748680_a_at) / RFU FAM212B (11763350_a_at) / Fold change /veh FAM212B (11763350_a_at) / RFU PLEKHG5 (11743358_a_at) / Fold change /veh PLEKHG5 (11743358_a_at) / RFU ZSCAN30 (11745921_a_at) / Fold change /veh ZSCAN30 (11745921_a_at) / RFU CMKLR1 (11741424_a_at) / Fold change /veh CMKLR1 (11741424_a_at) / RFU LOC101060620 /// MAPK8IP1 (11723275_at) / Fold change /veh LOC101060620 /// MAPK8IP1 (11723275_at) / RFU SPTSSB (11747773_x_at) / Fold change /veh SPTSSB (11747773_x_at) / RFU PRSS12 (11739890_at) / Fold change /veh PRSS12 (11739890_at) / RFU BIN1 (11741810_x_at) / Fold change /veh BIN1 (11741810_x_at) / RFU WNT11 (11732464_a_at) / Fold change /veh WNT11 (11732464_a_at) / RFU C10orf10 (11716521_a_at) / Fold change /veh C10orf10 (11716521_a_at) / RFU C5orf56 (11738089_at) / Fold change /veh C5orf56 (11738089_at) / RFU CYB561 (11721691_x_at) / Fold change /veh CYB561 (11721691_x_at) / RFU ANKRD19P (11752326_a_at) / Fold change /veh ANKRD19P (11752326_a_at) / RFU OR2T12 /// OR2T33 /// OR2T8 (11738714_s_at) / Fold change /veh OR2T12 /// OR2T33 /// OR2T8 (11738714_s_at) / RFU VCAN (11748164_a_at) / Fold change /veh VCAN (11748164_a_at) / RFU JSRP1 (11732532_at) / Fold change /veh JSRP1 (11732532_at) / RFU KRTAP10-11 (11738290_x_at) / Fold change /veh KRTAP10-11 (11738290_x_at) / RFU MYO3A (11730013_a_at) / Fold change /veh MYO3A (11730013_a_at) / RFU EBF3 (11725865_a_at) / Fold change /veh EBF3 (11725865_a_at) / RFU CAMK2N1 (11719241_x_at) / Fold change /veh CAMK2N1 (11719241_x_at) / RFU C5orf56 (11738088_a_at) / Fold change /veh C5orf56 (11738088_a_at) / RFU OLFML3 (11715873_a_at) / Fold change /veh OLFML3 (11715873_a_at) / RFU LOC100653217 /// NTM (11731650_a_at) / Fold change /veh LOC100653217 /// NTM (11731650_a_at) / RFU MAPK11 (11762145_a_at) / Fold change /veh MAPK11 (11762145_a_at) / RFU FIZ1 (11724087_x_at) / Fold change /veh FIZ1 (11724087_x_at) / RFU OASL (11726364_x_at) / Fold change /veh OASL (11726364_x_at) / RFU SOX15 (11748057_x_at) / Fold change /veh SOX15 (11748057_x_at) / RFU CD79A (11719716_a_at) / Fold change /veh CD79A (11719716_a_at) / RFU HIST1H1D (11736915_at) / Fold change /veh HIST1H1D (11736915_at) / RFU CASKIN2 (11723855_a_at) / Fold change /veh CASKIN2 (11723855_a_at) / RFU LOC730098 (11760151_x_at) / Fold change /veh LOC730098 (11760151_x_at) / RFU OR4N2 (11742367_at) / Fold change /veh OR4N2 (11742367_at) / RFU PRRT2 (11749266_a_at) / Fold change /veh PRRT2 (11749266_a_at) / RFU SNX32 (11753110_a_at) / Fold change /veh SNX32 (11753110_a_at) / RFU CDHR5 (11726645_a_at) / Fold change /veh CDHR5 (11726645_a_at) / RFU RCAN1 (11760418_a_at) / Fold change /veh RCAN1 (11760418_a_at) / RFU FAM167A (11723789_a_at) / Fold change /veh FAM167A (11723789_a_at) / RFU FAM26E (11764081_at) / Fold change /veh FAM26E (11764081_at) / RFU ISYNA1 (11749810_s_at) / Fold change /veh ISYNA1 (11749810_s_at) / RFU ACY1 (11761880_at) / Fold change /veh ACY1 (11761880_at) / RFU 11764098_at / Fold change /veh 11764098_at / RFU SAMD14 (11745864_x_at) / Fold change /veh SAMD14 (11745864_x_at) / RFU NPB (11741838_a_at) / Fold change /veh NPB (11741838_a_at) / RFU TMPRSS6 (11731388_a_at) / Fold change /veh TMPRSS6 (11731388_a_at) / RFU KRTAP10-2 (11738614_at) / Fold change /veh KRTAP10-2 (11738614_at) / RFU ARHGAP8 /// PRR5-ARHGAP8 (11727945_x_at) / Fold change /veh ARHGAP8 /// PRR5-ARHGAP8 (11727945_x_at) / RFU KRTAP5-7 /// NADSYN1 (11734609_at) / Fold change /veh KRTAP5-7 /// NADSYN1 (11734609_at) / RFU RASL12 (11751679_a_at) / Fold change /veh RASL12 (11751679_a_at) / RFU CDKN2B (11736163_a_at) / Fold change /veh CDKN2B (11736163_a_at) / RFU PRF1 (11729649_at) / Fold change /veh PRF1 (11729649_at) / RFU, ZNF638 /// ZNF638-IT1 / Fold change vs veh, ZNF638 /// ZNF638-IT1 / RFU, PANK3 / Fold change vs veh, PANK3 / RFU, SH3YL1 / Fold change vs veh, SH3YL1 / RFU, ZEB2 / Fold change vs veh, ZEB2 / RFU, NRIP1 / Fold change vs veh, NRIP1 / RFU, PTTG1IP / Fold change vs veh, PTTG1IP / RFU, CAPN2 / Fold change vs veh, CAPN2 / RFU, MED14 / Fold change vs veh, MED14 / RFU, SNORA58 / Fold change vs veh, SNORA58 / RFU, C1orf63 / Fold change vs veh, C1orf63 / RFU, LRRFIP1 / Fold change vs veh, LRRFIP1 / RFU, NDUFAF7 / Fold change vs veh, NDUFAF7 / RFU, SLC12A2 / Fold change vs veh, SLC12A2 / RFU, IBTK / Fold change vs veh, IBTK / RFU, ESF1 / Fold change vs veh, ESF1 / Fold change vs veh, TMEM50B / RFU, TAOK1 / Fold change vs veh, TAOK1 / RFU, ACBD3 / Fold change vs veh, ACBD3 / RFU, TMA16 / Fold change vs veh, TMA16 / RFU, RWDD3 / Fold change vs veh, RWDD3 / RFU, BCAT1 / Fold change vs veh, BCAT1 / RFU, EDEM3 / Fold change vs veh, EDEM3 / RFU, TMEM33 / Fold change vs veh, TMEM33 / RFU, WDR75 / Fold change vs veh, WDR75 / RFU, AHCTF1 / Fold change vs veh, AHCTF1 / RFU, TFRC / Fold change vs veh, TFRC / RFU, ZDHHC17 / Fold change vs veh, ZDHHC17 / RFU, NOM1 / Fold change vs veh, NOM1 / RFU, ARL8B / Fold change vs veh, ARL8B / RFU, ZBTB11 / Fold change vs veh, ZBTB11 / RFU, TAMM41 / Fold change vs veh, TAMM41 / RFU, KIAA1704 /// LOC100996395 / Fold change vs veh, KIAA1704 /// LOC100996395 / RFU, ING1 / Fold change vs veh, ING1 / RFU, TRMT61B / Fold change vs veh, TRMT61B / RFU, FUBP3 / Fold change vs veh, FUBP3 / RFU, TP53 / Fold change vs veh, TP53 / RFU, TNKS2 / Fold change vs veh, TNKS2 / RFU, ZFP14 / Fold change vs veh, ZFP14 / RFU, ACTR2 / Fold change vs veh, ACTR2 / RFU, PPP3R1 / Fold change vs veh, PPP3R1 / RFU, PIK3R1 / Fold change vs veh, PIK3R1 / RFU, HNRNPA1 / Fold change vs veh, HNRNPA1 / RFU, RNF170 / Fold change vs veh, RNF170 / RFU, ZNF28 / Fold change vs veh, ZNF28 / RFU, RNGTT / Fold change vs veh, RNGTT / RFU, OGT / Fold change vs veh, OGT / RFU, BRD1 / Fold change vs veh, BRD1 / RFU, MARS / Fold change vs veh, MARS / RFU, ZNF655 / Fold change vs veh, ZNF655 / RFU, FAHD1 / Fold change vs veh, FAHD1 / RFU, BDP1 / Fold change vs veh, BDP1 / RFU, LRRCC1 / Fold change vs veh, LRRCC1 / RFU, ARID1A / Fold change vs veh, ARID1A / RFU, ZNF146 / Fold change vs veh, ZNF146 / RFU, ZNF330 / Fold change vs veh, ZNF330 / RFU, GPN3 / Fold change vs veh, GPN3 / RFU, C9orf123 / Fold change vs veh, C9orf123 / RFU, N4BP2L2 / Fold change vs veh, N4BP2L2 / RFU, ARFIP1 / Fold change vs veh, ARFIP1 / RFU, FAM179B / Fold change vs veh, FAM179B / RFU, BCL10 / Fold change vs veh, BCL10 / RFU, UHRF1BP1L / Fold change vs veh, UHRF1BP1L / RFU, BET1 / Fold change vs veh, BET1 / RFU, CNOT2 / Fold change vs veh, CNOT2 / RFU, ZNF268 / Fold change vs veh, ZNF268 / Fold change vs veh, ZNF507 / RFU, DGCR2 / Fold change vs veh, DGCR2 / RFU, WDSUB1 / Fold change vs veh, WDSUB1 / Fold change vs veh, HSP90B1 /// MIR3652 / RFU, ADSS / Fold change vs veh, ADSS / RFU, GK / Fold change vs veh, GK / RFU, ZNF148 / Fold change vs veh, ZNF148 / RFU, TAF9 / Fold change vs veh, TAF9 / RFU, SLC1A5 / Fold change vs veh, SLC1A5 / RFU, SLMO2 / Fold change vs veh, SLMO2 / RFU, ABCC4 / Fold change vs veh, ABCC4 / RFU, LOC101060439 /// RAP1B / Fold change vs veh, LOC101060439 /// RAP1B / RFU, RFX7 / Fold change vs veh, RFX7 / RFU, GTPBP10 / Fold change vs veh, GTPBP10 / RFU, CNEP1R1 / Fold change vs veh, CNEP1R1 / RFU, BIVM-ERCC5 /// ERCC5 / Fold change vs veh, BIVM-ERCC5 /// ERCC5 / RFU, ILF3 / Fold change vs veh, ILF3 / RFU 11762660_at / Fold change /veh 11762660_at / RFU VCAN (11757783_s_at) / Fold change /veh VCAN (11757783_s_at) / RFU DDX43 (11728927_at) / Fold change /veh DDX43 (11728927_at) / RFU KRT8 (11758188_x_at) / Fold change /veh KRT8 (11758188_x_at) / RFU NKD1 (11759106_at) / Fold change /veh NKD1 (11759106_at) / RFU SRD5A1 (11742802_a_at) / Fold change /veh SRD5A1 (11742802_a_at) / RFU TPSAB1 /// TPSB2 (11721975_s_at) / Fold change /veh TPSAB1 /// TPSB2 (11721975_s_at) / RFU GSTM3 (11746129_a_at) / Fold change /veh GSTM3 (11746129_a_at) / RFU IL23R (11737362_x_at) / Fold change /veh IL23R (11737362_x_at) / RFU TMEM51 (11727254_a_at) / Fold change /veh TMEM51 (11727254_a_at) / RFU PIWIL2 (11732686_x_at) / Fold change /veh PIWIL2 (11732686_x_at) / RFU ORM1 (11744905_x_at) / Fold change /veh ORM1 (11744905_x_at) / RFU CCDC152 (11743942_at) / Fold change /veh CCDC152 (11743942_at) / RFU ECM1 (11717891_a_at) / Fold change /veh ECM1 (11717891_a_at) / RFU IL23R (11748794_a_at) / Fold change /veh IL23R (11748794_a_at) / RFU TNFAIP8L3 (11732012_x_at) / Fold change /veh TNFAIP8L3 (11732012_x_at) / RFU MBOAT4 (11741988_at) / Fold change /veh MBOAT4 (11741988_at) / RFU 11764193_at / Fold change /veh 11764193_at / RFU TMEM53 (11763286_at) / Fold change /veh TMEM53 (11763286_at) / RFU MAGEB2 (11727129_at) / Fold change /veh MAGEB2 (11727129_at) / RFU TMEM200A (11744735_a_at) / Fold change /veh TMEM200A (11744735_a_at) / RFU CCDC152 (11751479_a_at) / Fold change /veh CCDC152 (11751479_a_at) / RFU FAM211A (11726209_a_at) / Fold change /veh FAM211A (11726209_a_at) / RFU RGS16 (11746705_a_at) / Fold change /veh RGS16 (11746705_a_at) / RFU VCAN (11755009_s_at) / Fold change /veh VCAN (11755009_s_at) / RFU RHOB (11743442_s_at) / Fold change /veh RHOB (11743442_s_at) / RFU RGS16 (11720943_a_at) / Fold change /veh RGS16 (11720943_a_at) / RFU RGS16 (11720944_at) / Fold change /veh RGS16 (11720944_at) / RFU, VPS4B / Fold change vs veh, VPS4B / RFU, CREB1 / Fold change vs veh, CREB1 / RFU, DNAJC13 / Fold change vs veh, DNAJC13 / RFU, GNAQ / Fold change vs veh, GNAQ / RFU, CDK5R1 / Fold change vs veh, CDK5R1 / RFU, ZRANB3 / Fold change vs veh, ZRANB3 / RFU, CUL4A / Fold change vs veh, CUL4A / RFU, CCNY / Fold change vs veh, CCNY / RFU, UFL1 / Fold change vs veh, UFL1 / RFU, COG3 / Fold change vs veh, COG3 / RFU, DIAPH2 / Fold change vs veh, DIAPH2 / RFU, SKA2 / Fold change vs veh, SKA2 / RFU, AFF3 / Fold change vs veh, AFF3 / RFU, LMF1 / Fold change vs veh, LMF1 / RFU, IPO11 / Fold change vs veh, IPO11 / RFU, DFFB / Fold change vs veh, DFFB / RFU, FOXP1 / Fold change vs veh, FOXP1 / RFU, CARD8 / Fold change vs veh, CARD8 / RFU, STRN3 / Fold change vs veh, STRN3 / RFU, ADK / Fold change vs veh, ADK / RFU, RASSF2 / Fold change vs veh, RASSF2 / RFU, WIPF1 / Fold change vs veh, WIPF1 / RFU, LARP1B / Fold change vs veh, LARP1B / RFU, RASA1 / Fold change vs veh, RASA1 / RFU, RB1 / Fold change vs veh, RB1 / RFU, PPFIA1 / Fold change vs veh, PPFIA1 / RFU, MAT2A / Fold change vs veh, MAT2A / RFU, CCT5 / Fold change vs veh, CCT5 / RFU, WDR92 / Fold change vs veh, WDR92 / RFU, CUX1 / Fold change vs veh, CUX1 / RFU, TTC7A / Fold change vs veh, TTC7A / RFU, TMEM135 / Fold change vs veh, TMEM135 / RFU, DEPTOR / Fold change vs veh, DEPTOR / RFU, CPM / Fold change vs veh, CPM / RFU, DNAJB6 / Fold change vs veh, DNAJB6 / RFU, CACNA2D3 / Fold change vs veh, CACNA2D3 / RFU, DTX4 / Fold change vs veh, DTX4 / RFU, TFCP2 / Fold change vs veh, TFCP2 / RFU, GMCL1 /// GMCL1P1 / Fold change vs veh, GMCL1 /// GMCL1P1 / RFU, AEBP2 / Fold change vs veh, AEBP2 / RFU, SNHG1 /// SNORD22 /// SNORD25 /// SNORD26 /// SNORD27 /// SNORD28 /// SNORD29 /// SNORD31 / Fold change vs veh, SNHG1 /// SNORD22 /// SNORD25 /// SNORD26 /// SNORD27 /// SNORD28 /// SNORD29 /// SNORD31 / Fold change (Aza/veh), C12orf56 (ProbeSet 11735607_a_at) / Fold change (ACY-1035/veh), C12orf56 (ProbeSet 11735607_a_at) / Fold change (Aza/veh), FGFR1OP (ProbeSet 11751329_s_at) / Fold change (ACY-1035/veh), FGFR1OP (ProbeSet 11751329_s_at) / Fold change (Aza/veh), VPS36 (ProbeSet 11739960_a_at) / Fold change (ACY-1035/veh), VPS36 (ProbeSet 11739960_a_at) / RFU SYPL1 (11715823_x_at) / Fold change /veh SYPL1 (11715823_x_at) / RFU IGFBP7 (11715501_s_at) / Fold change /veh IGFBP7 (11715501_s_at) / RFU REEP3 (11722064_at) / Fold change /veh REEP3 (11722064_at) / RFU IGLL1 (11728026_x_at) / Fold change /veh IGLL1 (11728026_x_at): dose or concentration left out as unconfirmed
Settings: MV-4-11 cells, 48 hours

In the case of `Nc1ccc(-c2cccs2)cc1NC(=O)c1ccc2c(c1)cc(C1CC1)n2CCN1CCOCC1` [ACY-1035], the “RFU GAP43 (11754022_s_at)” value is reported as 68.94 RFU.
